Source: publication PMC6063448, “Antimicrobial activity of linear lipopeptides derived from BP100 towards plant pathogens” (PLoS ONE, 2018)

Legend:
tobacco leaves = experiment: Effect of peptide infiltration on tobacco leaves; type: in vivo; conditions: for Diameter of necrotic area in infiltrated tobacco leaves: 100 μL infiltrated, after 48 h
Description: BP100 and the 36 lipopeptides were evaluated for their effect upon infiltration on tobacco leaves as described previously. Peptide solutions of 50, 150 and 250 μM were infiltrated (100 μL) into the mesophylls of fully expanded tobacco leaves. Infiltrations were carried out in a single leaf, and for each peptide and dose, at least three leaves randomly distributed in different plants were inoculated. Control infiltrations with water (negative control) or melittin (positive control) at the same molar concentration were performed. The appearance of symptoms on the leaves was followed for 48 h after infiltration and measured as a lesion diameter.

[1] = test system: Erwinia amylovora PMV6076; experiment: MIC, growth inhibition in microtiter plates (TSB); type: cell-based; conditions: Ea, 25°C, 48 h, OD 600 nm, lowest concentration with no growth, given as interval of tested concentrations, three replicates, experiment repeated twice
Method in brief: (§1)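 The MIC is the lowest peptide concentration showing no growth after 48 h at 25 °C, with growth followed hourly by OD600 in TSB (triplicate wells, experiment repeated twice). Inocula came from 10^8 CFU mL^-1 suspensions of cells grown 24 h, or 48 h for X. fragariae, at 25 °C.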

[2] = test system: Pseudomonas syringae pv. actinidiae Psa3700.1.1; experiment: MIC, growth inhibition in microtiter plates (TSB); type: cell-based; conditions: Psa, 25°C, 48 h, OD 600 nm, lowest concentration with no growth, given as interval of tested concentrations, three replicates, experiment repeated twice
Method in brief: as §1

[3] = test system: Pseudomonas syringae pv. syringae EPS94; experiment: MIC, growth inhibition in microtiter plates (TSB); type: cell-based; conditions: Pss, 25°C, 48 h, OD 600 nm, lowest concentration with no growth, given as interval of tested concentrations, three replicates, experiment repeated twice
Method in brief: as §1

[4] = test system: Xanthomonas arboricola pv. pruni CFBP5563; experiment: MIC, growth inhibition in microtiter plates (TSB); type: cell-based; conditions: Xap, 25°C, 48 h, OD 600 nm, lowest concentration with no growth, given as interval of tested concentrations, three replicates, experiment repeated twice
Method in brief: as §1

[5] = test system: Xanthomonas axonopodis pv. vesicatoria 2133–2; experiment: MIC, growth inhibition in microtiter plates (TSB); type: cell-based; conditions: Xav, 25°C, 48 h, OD 600 nm, lowest concentration with no growth, given as interval of tested concentrations, three replicates, experiment repeated twice
Method in brief: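 OD600 readout, hourly over 48 h at 25°C, 20 s shaking; TSB medium; inoculum from 10^8 CFU mL^-1 water suspension; triplicates, experiment run twice; MIC = lowest concentration showing no growth at endpoint.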

[6] = test system: Xanthomonas fragariae Xf349-9A; experiment: MIC, growth inhibition in microtiter plates (TSB); type: cell-based; conditions: Xf, 25°C, 48 h, OD 600 nm, lowest concentration with no growth, given as interval of tested concentrations, three replicates, experiment repeated twice
Method in brief: as §1

[7] = test system: Fusarium oxysporum f. sp. lycopersici FOL 3 race 2; experiment: MIC, antifungal growth inhibition in microtiter plates (PDB); type: cell-based; conditions: Fo, 22°C, seven days, OD 600 nm, lowest concentration with no growth, given as interval of tested concentrations, three replicates, experiment repeated twice
Method in brief: (§2)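 Conidial suspensions (10^3 conidia/mL P. expansum, 10^4 F. oxysporum) incubated with peptides in PDB with 0.003% chloramphenicol at 22 °C for seven days, OD600 read every 2 h. MIC is the lowest concentration with no growth at the end; triplicates, experiment repeated twice.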

[8] = test system: Penicillium expansum EPS26; experiment: as above; type: cell-based; conditions: Pe, 22°C, seven days, OD 600 nm, lowest concentration with no growth, given as interval of tested concentrations, three replicates, experiment repeated twice
Method in brief: as §2

proteinase K = test system: T1, proteinase K; experiment: Susceptibility to protease degradation; type: in vitro ADME; conditions: proteinase K (isolated protease) in TRIS buffer; 50 μg/mL peptide, 1 μg/mL proteinase K, 100 mM TRIS buffer pH 7.6, 25°C, 60 min; decrease of HPLC peak area (220 nm); read-out: Digestion with proteinase K (percentage of degraded peptide)
T1 construct: purchased Sigma-Aldrich Corporation, Spain
Description: Digestion of BP100 and of 16 selected lipopeptides was carried out by treating 50 μg/mL peptide with 1 μg/mL proteinase K (Sigma-Aldrich Corporation, Spain) in 100 mM TRIS buffer, pH 7.6, at 25°C. The peptide cleavage after 60 min was determined by HPLC using a Kromasil (4.6 × 40 mm; 3 μm particle size) C18 reverse-phase column. Linear gradients of 0.1% aqueous TFA and 0.1% TFA in CH3CN were run from 0.98:0.02 to 0:1 over 12 min with UV detection at 220 nm. Digestion was estimated as the percentage of degraded lipopeptide calculated from the decrease of the HPLC peak area of the native peptide.

For `CC[C@H](C)[C@H](NC(=O)CN)C(=O)NCC(=O)N[C@@H](C)C(=O)N[C@H](C(=O)N[C@@H](CC(C)C)C(=O)N[C@@H](CCCCN)C(=O)N[C@H](C(=O)N[C@@H](CC(C)C)C(=O)N[C@H](C(=O)N[C@H](C(=O)NCC(=O)N[C@@H](CC(C)C)C(=O)N1CCC[C@H]1C(=O)N[C@@H](C)C(=O)N[C@@H](CC(C)C)C(=O)N[C@H](C(=O)N[C@@H](CO)C(=O)N[C@@H](Cc1c[nH]c2ccccc12)C(=O)N[C@H](C(=O)N[C@@H](CCCCN)C(=O)N[C@@H](CCCNC(=N)N)C(=O)N[C@@H](CCCCN)C(=O)N[C@@H](CCCNC(=N)N)C(=O)N[C@@H](CCC(N)=O)C(=O)N[C@@H](CCC(N)=O)C(N)=O)[C@@H](C)CC)[C@@H](C)CC)[C@@H](C)O)[C@@H](C)O)C(C)C)C(C)C` [melittin, reference compound], the “Diameter of necrotic area in infiltrated tobacco leaves” value (tobacco leaves; 50 μM) was 1.1 cm and the “Diameter of necrotic area in infiltrated tobacco leaves” value (tobacco leaves; 250 μM) was 2.3 cm.
`CCCCCC(=O)NCCCC[C@H](NC(=O)[C@H](CCCCN)NC(=O)[C@H](CCCCN)NC(C)=O)C(=O)N[C@@H](Cc1ccccc1)C(=O)N[C@@H](CCCCN)C(=O)N[C@@H](CCCCN)C(=O)N[C@H](C(=O)N[C@@H](CC(C)C)C(=O)N[C@@H](CCCCN)C(=O)N[C@@H](Cc1ccc(O)cc1)C(=O)N[C@@H](CC(C)C)C(N)=O)[C@@H](C)CC` [BP370, Ac-KKK(COC5H11)FKKILKYL-NH2] gave an MIC [1] of 3.1 to 6.2 µM, an MIC [2] of 3.1 to 6.2 µM and an MIC [3] of 3.1 to 6.2 µM. For the same compound, the MIC [4] was 3.1 to 6.2 µM, the MIC [5] was 3.1 to 6.2 µM and the MIC [6] was 6.2 to 12.5 µM. The MIC [7] was 0.8 to 1.6 µM, the MIC [8] was 6.2 to 12.5 µM and the “Size of the lesions in infiltrated tobacco leaves (diameter)” value (tobacco leaves; 250 μM, 100 μL infiltrated into mesophyll, measured after 48 h) was 5.0 ± 1.6 mm. The metabolised at 1 h, 50 μg/mL (proteinase K) was 26%.
`CCCC(=O)NCCCC[C@H](NC(=O)[C@H](CC(C)C)NC(=O)[C@H](CCCCN)NC(=O)[C@H](CCCCN)NC(C)=O)C(=O)N[C@@H](CCCCN)C(=O)N[C@@H](CCCCN)C(=O)N[C@H](C(=O)N[C@@H](CC(C)C)C(=O)N[C@@H](CCCCN)C(=O)N[C@@H](Cc1ccc(O)cc1)C(=O)N[C@@H](CC(C)C)C(N)=O)[C@@H](C)CC` [BP383, Ac-KKLK(COC3H7)KKILKYL-NH2] showed an MIC [1] of 6.2 to 12.5 µM, an MIC [2] of 6.2 to 12.5 µM and an MIC [3] of 6.2 to 12.5 µM. For the same compound, the MIC [4] was 6.2 to 12.5 µM, the MIC [5] was 3.1 to 6.2 µM and the MIC [6] was 3.1 to 6.2 µM. It also gave an MIC [7] of 0.8 to 1.6 µM and an MIC [8] of 6.2 to 12.5 µM.
